For 6 compounds, EC50, Emax and IC50 results are on record in US10442793B2, “Oxa spiro derivative, preparation method therefor, and applications thereof in medicines” (Jiangsu Hengrui Medicine Co., Ltd., priority 2015, dated 2019).

Common to all, as to format: cell-based
For one assay, the target named is T1, μ-opioid receptors (MOR) (Homo sapiens, UniProt P35372).
T1 construct: host or cells: HEK293
Description: MOR activity test: HEK293/MOR/CRE luciferase reporter, agonizing MOR and affecting downstream cAMP levels. As to conditions: for Emax: HEK293, maximum effect of TRV-130 is 100%, read-out: Emax on agonizing MOR receptor and affecting cAMP levels. An excerpt: The compounds of the present invention can activate μ-opioid receptors (MOR). Activated MOR can regulate intracellular cAMP levels, and cAMP enters the nucleus and binds to the CRE region of the reporter gene luciferase, thereby initiating the expression of the reporter gene. Luciferase can react with its substrate to emit fluorescence, and the measured fluorescence signals reflect the agonistic activity of the compounds.
The activity of the test example compounds on agonizing MOR and affecting downstream cAMP levels was tested by the following method.
MOR/pcDNA3.1 (+) and CRE/pGL4.29 were transferred into HEK293 cells. G418 and hygromycin were added into the culture medium, and HEK293/MOR/CRE monoclonal cell lines were screened in a 96-well cell culture plate.
HEK293/MOR/CRE monoclonal cells were cultured in a DMEM/high glucose medium (10% FBS, 1 mg/ml G418, 200 μg/ml hygromycin, mixed uniformly), and passaged every 3 days. On the day of the experiment, a cell suspension was prepared with a fresh cell medium, added to a 96 well plate (BD, #356692) with 20,000 cells/well, and incubated in 5% CO2 at 37° C. On the second day, the compound was dissolved in pure DMSO at a concentration of 20 mM, then formulated with DMSO to a first concentration of 4 mM and diluted in 10 fold concentration gradient to 6 concentrations. Then, 90 μl of DMSO was added to blank and control wells. Then, formulated compound was prepared by adding 2.5 μl of the compound solutions formulated in DMSO at a gradient concentration to 97.5 μl of a fresh cell culture medium containing 5 μM foscolin. Then, 10 μl of the formulated compound was added to the cell culture plate to make the final concentration of the compound 10000, 1000, 100, 10, 1, 0.1, or 0.01 nM, and the plate was incubated at 37° C., in 5% CO2 for 5 hours. In a 96-well cell culture plate, 100 μl of luciferase assay solution (Promega, # E6110) was added to each well. The plate was placed in the dark at room temperature for 10-15 minutes, blowed and aspirated 10 times, and 100 μl were pipetted to a 96 well white plate. The chemiluminescence signal values were read in a microplate reader (PE, Victor3), and the read data was processed using software.
The activity of the compounds of the present invention on agonizing MOR and affecting downstream cAMP levels was determined by the above test, and the EC50 values are shown in Table 1.1.

Another assay addresses T2, KOR receptor (Homo sapiens, UniProt P41145).
T2 construct: expressed in transfected cells; host or cells: HEK293
The experiment in a line: KOR activity test: HEK293/KOR/CRE luciferase reporter, cAMP levels. As to conditions: for Emax: HEK293, maximum effect of morphine is 100%. Here is the method:
(§1) The experiment objective is to determine the activity of the compounds of the present invention on agonizing KOR receptor and DOR receptor, and affecting downstream cAMP levels.
(§2) 90 μl of HEK293/KOR/CRE or HEK293/DOR/CRE (CRE cDNA purchased from Promega, product number E8471, KOR cDNA and DOR cDNA were constructed by our company) cells were inoculated in a 96-well plate with a density of 1×10^4 cells/well. Then, the cells were incubated overnight at 37° C., in 5% CO2. The drug was prepared as a 20 mM stock solution that was later diluted with 100% DMSO to a 200×concentration gradient, and then diluted with a 20-fold DMEM/high glucose (SH30243.01B, Hyclone) medium. The cell culture plate inoculated on the first day was taken out, and […] of the diluted drug or control (0.5% DMSO) was added to each well. The plate was gently shaken and placed in a incubator at 37° C., 5% CO2 for 4 hours. Finally, 100 μl of a detection reagent ONE-Glo (E6120, Promega) was added to each well, and the plate was placed at room temperature for 5 minutes. The absorbance value was measured by the cold light model of a microplate reader (PE, Victor3). The EC50 value of the compound was calculated by Graphpad Prism software according to each concentration of the compound and the corresponding signal value. Emax is the maximum effect of the compound on cAMP level changes.
(§3) The activity of the compounds of the present invention on agonizing KOR receptor or DOR receptor and affecting downstream cAMP levels was determined by the above test, and the EC50 values are shown in Table 1.2.
For orientation: In a reporter assay the amount or activity of a reporter protein is the signal.

The target in a further assay is T3, DOR receptor (Homo sapiens, UniProt P41143).
T3 construct: expressed in transfected cells; host or cells: HEK293
Description: DOR activity test: HEK293/DOR/CRE luciferase reporter, cAMP levels. The following applies: for Emax: HEK293, maximum effect of morphine is 100%. The protocol:
as §1, §2, §3

The target in another assay is T4, MOR receptor (Homo sapiens, UniProt P35372).
T4 construct: host or cells: CHO-K1
The experiment in a line: Activation of the β-arrestin signaling pathway of MOR receptor (CHO-K1 OPRM1 β-Arrestin cells, DiscoveRX). As to conditions: for Emax: maximum effect of morphine is 100%. The protocol:
The experiment objective is to determine the activity of the compounds of the present invention on activating the β-arrestin signaling pathway of MOR receptor.
The drug was prepared as a 20 mM stock solution that was later diluted with 100% DMSO to a 200×concentration gradient, and then diluted with a 20-fold AssayComplete™ Cell Plating 2 Reagent (93-0563R2B, DiscoveRX) medium. The cell culture plate inoculated on the first day was taken out, and 10 μl of the diluted drug or control (0.5% DMSO) was added to each well. The plate was gently shaken and placed in an incubator at 37° C., 5% CO2 for 90 minutes. Finally, 50 μL of a detection reagent (93-0001, DiscoveRX) were added to each well, and the plate was placed at room temperature for 60 minutes. The absorbance values were measured by the cold light model of a microplate reader (PE, Victor3). The EC50 values of the compounds were calculated by Graphpad Prism software according to each concentration of the compound and the corresponding signal value.

In a further assay the target is T5, hERG potassium channel (Homo sapiens, UniProt Q12809).
T5 construct: expressed in transfected cells; host or cells: HEK293
Description: Blocking of hERG potassium current, automatic patch clamp on HEK293-hERG cells. Here is the method:
The blocking effect of the compounds of the present invention and the positive compound TRV-130 (Journal of Pharmacology and Experimental Therapeutics, Volume 344, Issue 3, Pages 708-717, 2013) on hERG potassium current was tested on a stable cell line transfected with hERG potassium channel using an automatic patch clamp.
HEK293-hERG stabilized cells were subcultured at a density of 1:4 in a MEM/EBSS medium (10% FBS, 400 μg/ml G418, 1% MEM nonessential amino acid solution (100×), 1% sodium pyruvate solution) for 48-72 hours, then the automatic patch clamp experiment was performed. The cells were digested with 0.25% trypsin on the day of the experiment, then the cells were collected by centrifugation and resuspended with extracellular fluid (140 mM NaCl, 4 mM KCl, 1 mM MgCl2, 2 mM CaCl2, 5 mM D-glucose monohydrate, 10 mM Hepes, pH 7.4, 298 mOsmol) into a cell suspension. The cell suspension was placed on the cell bank of the Patchliner instrument, and the cells were added to the chip (NPC-16) by the negative pressure controller of the Patchliner instrument, with negative pressure attracting individual cells to the small hole of the chip. After the whole cell model was formed, the instrument generated the hERG current according to the preset hERG current and voltage program, and then the instrument perfused the compound from low concentration to high concentration automatically. HEAK Patchmaster, HEAK EPC10 patch clamp amplifier (Nanion), Pathliner software, and a data analysis software provided by Pathcontrol HTsoftware were used to analyze the current of the compounds at different concentrations and the current of the blank control.
The blocking effect of the compounds of the present invention on hERG potassium current was determined by the above test, and the IC50 values are shown in Table 3.

Where [1] appears, read: HEK293/KOR/CRE cells, 4 h incubation, read-out: KOR EC50.
Setting [2] is: HEK293/DOR/CRE cells, 4 h incubation, read-out: DOR EC50.

Like-named read-outs stand apart in the source and are kept apart here.

T5 sequence (Q12809 whole entry): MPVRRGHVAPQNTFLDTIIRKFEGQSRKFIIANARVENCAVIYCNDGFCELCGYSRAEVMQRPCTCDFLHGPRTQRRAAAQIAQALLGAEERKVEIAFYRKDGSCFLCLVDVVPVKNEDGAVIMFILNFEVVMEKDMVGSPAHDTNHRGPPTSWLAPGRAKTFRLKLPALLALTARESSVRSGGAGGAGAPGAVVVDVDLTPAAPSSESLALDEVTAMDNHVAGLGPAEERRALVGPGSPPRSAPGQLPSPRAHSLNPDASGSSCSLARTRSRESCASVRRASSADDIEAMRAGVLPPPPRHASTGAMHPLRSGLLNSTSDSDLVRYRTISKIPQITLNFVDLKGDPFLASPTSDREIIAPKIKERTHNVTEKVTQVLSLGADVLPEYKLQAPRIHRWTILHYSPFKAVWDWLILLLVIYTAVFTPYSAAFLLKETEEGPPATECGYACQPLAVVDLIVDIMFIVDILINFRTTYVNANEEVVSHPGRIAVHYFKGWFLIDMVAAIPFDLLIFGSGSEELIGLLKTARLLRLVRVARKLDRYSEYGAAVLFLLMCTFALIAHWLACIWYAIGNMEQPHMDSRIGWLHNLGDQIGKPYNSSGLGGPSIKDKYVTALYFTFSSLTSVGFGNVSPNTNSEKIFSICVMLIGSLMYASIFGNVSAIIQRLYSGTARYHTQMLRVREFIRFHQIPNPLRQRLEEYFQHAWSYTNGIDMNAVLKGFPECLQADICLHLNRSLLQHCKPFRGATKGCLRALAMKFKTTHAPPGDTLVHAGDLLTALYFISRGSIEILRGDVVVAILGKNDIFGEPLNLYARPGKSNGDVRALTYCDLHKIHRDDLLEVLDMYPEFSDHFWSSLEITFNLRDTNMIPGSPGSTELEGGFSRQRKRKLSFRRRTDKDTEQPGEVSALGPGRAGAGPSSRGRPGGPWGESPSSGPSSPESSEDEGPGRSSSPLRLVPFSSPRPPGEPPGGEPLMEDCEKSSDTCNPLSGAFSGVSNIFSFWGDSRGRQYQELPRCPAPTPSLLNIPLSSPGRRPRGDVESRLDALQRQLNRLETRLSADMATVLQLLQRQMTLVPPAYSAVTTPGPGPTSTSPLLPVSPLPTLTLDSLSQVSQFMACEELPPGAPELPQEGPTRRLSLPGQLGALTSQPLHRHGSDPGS
T3 sequence (P41143 whole entry): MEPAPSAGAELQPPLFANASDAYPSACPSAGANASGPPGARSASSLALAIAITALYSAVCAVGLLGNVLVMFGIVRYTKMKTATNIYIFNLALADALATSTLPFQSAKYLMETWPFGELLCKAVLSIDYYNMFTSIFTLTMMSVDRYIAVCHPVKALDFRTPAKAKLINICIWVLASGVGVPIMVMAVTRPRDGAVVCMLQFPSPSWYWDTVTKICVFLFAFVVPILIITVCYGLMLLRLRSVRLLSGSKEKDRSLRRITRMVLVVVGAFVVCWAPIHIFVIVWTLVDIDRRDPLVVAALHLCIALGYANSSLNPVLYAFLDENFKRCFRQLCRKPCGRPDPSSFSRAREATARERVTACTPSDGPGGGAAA
T2 sequence (P41145 whole entry): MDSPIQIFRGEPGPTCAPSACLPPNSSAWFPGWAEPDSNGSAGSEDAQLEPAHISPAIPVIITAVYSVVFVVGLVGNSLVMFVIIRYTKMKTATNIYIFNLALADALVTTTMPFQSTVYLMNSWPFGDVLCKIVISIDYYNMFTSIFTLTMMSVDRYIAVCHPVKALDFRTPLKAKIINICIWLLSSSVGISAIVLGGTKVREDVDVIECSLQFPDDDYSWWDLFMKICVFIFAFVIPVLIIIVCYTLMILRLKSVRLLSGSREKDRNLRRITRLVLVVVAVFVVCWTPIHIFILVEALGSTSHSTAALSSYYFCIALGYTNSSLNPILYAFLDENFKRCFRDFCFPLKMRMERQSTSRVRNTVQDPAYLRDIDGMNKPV
T1 sequence (P35372 whole entry): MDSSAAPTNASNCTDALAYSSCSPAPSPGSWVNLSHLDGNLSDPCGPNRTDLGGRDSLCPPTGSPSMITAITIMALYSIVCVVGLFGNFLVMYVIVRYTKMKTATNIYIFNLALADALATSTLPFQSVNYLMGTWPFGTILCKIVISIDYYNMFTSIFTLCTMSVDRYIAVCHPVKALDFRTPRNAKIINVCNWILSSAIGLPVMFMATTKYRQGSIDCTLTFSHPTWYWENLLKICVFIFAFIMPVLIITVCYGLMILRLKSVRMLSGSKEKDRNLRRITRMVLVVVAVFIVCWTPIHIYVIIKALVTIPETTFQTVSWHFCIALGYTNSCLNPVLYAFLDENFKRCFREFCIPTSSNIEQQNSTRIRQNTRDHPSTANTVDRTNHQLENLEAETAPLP
T4 sequence (P35372 whole entry): as above

For the compound `COC[C@H]1CC[C@H](NCC[C@@]2(c3ccccn3)CCOC3(CCCC3)C2)c2ccccc21` [Example 22, (1S,4S)-4-(methoxymethyl)-N-(2-((R)-9-(pyridin-2-yl)-6-oxaspiro[4.5]decan-9-yl)ethyl)-1,2,3,4-tetrahydronaphthalen-1-amine], the EC50 at μ-opioid receptors (MOR) was 4 nM; on KOR receptor it was 3090 nM; at DOR receptor it was 2400 nM; at MOR receptor it was 41 nM. Besides, the Emax on μ-opioid receptors (MOR) was found to be 103%; at KOR receptor, 97%; on DOR receptor, 102%; on MOR receptor, 18%. The compound also had a 50% inhibitory concentration (IC50) on hERG potassium channel of 3800 nM.

Take `FCCO[C@H]1CC[C@H](NCC[C@@]2(c3ccccn3)CCOC3(CCCC3)C2)c2ccccc21` [Example 21, (1S,4S)-4-(2-fluoroethoxy)-N-(2-((R)-9-(pyridin-2-yl)-6-oxaspiro[4.5]decan-9-yl)ethyl)-1,2,3,4-tetrahydronaphthalen-1-amine]: the 50% effective concentration (EC50) came out at 5 nM at μ-opioid receptors (MOR) (HEK293/MOR/CRE cells, 5 h incubation, forskolin, read-out: EC50 on agonizing MOR receptor and affecting cAMP levels); 1180 nM on KOR receptor (setting [1]); 1490 nM at DOR receptor (setting [2]). In addition, the maximum response (Emax) at μ-opioid receptors (MOR) was 110%; at KOR receptor, 100%; at DOR receptor, 107%. Further, the IC50 on hERG potassium channel (HEK293-hERG cells, automatic patch clamp, read-out: IC50 on blocking hERG potassium current) came out at 4200 nM.

In the case of `CO[C@H]1CC[C@H](NCC[C@@]2(c3ccccn3)CCOC3(CCCC3)C2)c2ccccc21` [Example 14, (1S,4S)-4-methoxy-N-(2-((R)-9-(pyridin-2-yl)-6-oxaspiro[4.5]decan-9-yl)ethyl)-1,2,3,4-tetrahydronaphthalen-1-amine], the concentration giving a half-maximal response (EC50) on μ-opioid receptors (MOR) was 3 nM; on KOR receptor, 1470 nM; at DOR receptor it was 1510 nM; on MOR receptor, 26 nM. The maximum response (Emax) on μ-opioid receptors (MOR) worked out at 109%; at KOR receptor, 74%; at DOR receptor, 91%; on MOR receptor, 24%. Also, the IC50 on hERG potassium channel was 8600 nM.

In the case of `CCO[C@H]1CC[C@H](NCC[C@@]2(c3ccccn3)CCOC3(CCCC3)C2)c2ccccc21` [Example 19, (1S,4S)-4-ethoxy-N-(2-((R)-9-(pyridin-2-yl)-6-oxaspiro[4.5]decan-9-yl)ethyl)-1,2,3,4-tetrahydronaphthalen-1-amine], the EC50 on μ-opioid receptors (MOR) amounted to 2 nM; at KOR receptor, 862 nM; at DOR receptor, 552 nM; at MOR receptor, 24 nM. Besides, the Emax at μ-opioid receptors (MOR) came to 98%; at KOR receptor, 96%; on DOR receptor it was 108%; at MOR receptor, 13%. Also, the IC50 at hERG potassium channel came out at 5900 nM.

As for `c1ccc([C@]2(CCN[C@H]3CC[C@H](OCC4CC4)c4ccccc43)CCOC3(CCCC3)C2)nc1` [Example 20, (1S,4S)-4-(cyclopropylmethoxy)-N-(2-((R)-9-(pyridin-2-yl)-6-oxaspiro[4.5]decan-9-yl)ethyl)-1,2,3,4-tetrahydronaphthalen-1-amine], the EC50 on KOR receptor (setting [1]) turned out to be 710 nM; at DOR receptor (setting [2]) it was 1520 nM; on MOR receptor (CHO-K1 OPRM1 β-Arrestin cells, 90 minutes, read-out: EC50 on the β-arrestin signaling pathway), 4 nM. For the same compound, the Emax at KOR receptor turned out to be 103%; at DOR receptor, 118%; on MOR receptor, 9%.

Consider `O=C1CC[C@H](NCC[C@@]2(c3ccccn3)CCOC3(CCCC3)C2)c2ccccc21` [Example 11, (S)-4-((2-((R)-9-(pyridin-2-yl)-6-oxaspiro[4.5]decan-9-yl)ethyl)amino)-3,4-dihydronaphthalen-1(2H)-one], for which the EC50 at μ-opioid receptors (MOR) was 17 nM; at KOR receptor, 277 nM; at DOR receptor, 1920 nM; at MOR receptor, 305 nM. In addition, the Emax on μ-opioid receptors (MOR) turned out to be 112%; at KOR receptor, 98%; at DOR receptor it was 80%; on MOR receptor, 37%. At hERG potassium channel, the concentration for half-maximal inhibition (IC50) stood at 4100 nM.

For orientation: EC50 means the midpoint of the concentration-response curve. A word on the Emax: it is the maximal effect, on the per cent scale that the assay sets. In general, IC50 refers to the concentration at which inhibition is half-maximal.
